Assay results from patent US12060400B2, “Peptides for use in immunotherapy against cancers” (Immatics Biotechnologies GmbH, priority 2018, dated 2024).

Each substance was assayed on HLA-A*24 (assay: MHC binding assay: UV-ligand exchange with beta2m ELISA (peptide exchange yield)). Details: Table 11, binding to HLA-A*24, UV-ligand exchange.
Set-up: species or system human
Summary of the method: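 Peptide-MHC complexes generated by UV-induced exchange of a photocleavable ligand with the test peptide; exchange yield quantified by streptavidin-capture ELISA detecting β2m (HRP anti-β2m, TMB, A450). Samples diluted 100-fold, with refolded HLA-A*02:01/MLA-001 monomers (15-500 ng/ml) as standards.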

Substance	Peptide exchange (MHC class I binding score, peptide exchange yield)
239 (IYTFSNVTF; listed as Homo sapiens) [compound 239]	++++ (>75% = ++++)
224 (AYLQFLSVL; listed as Homo sapiens) [compound 224]	++++ (>75% = ++++)
222 (HYHAESFLF; listed as Homo sapiens) [compound 222]	++++ (>75% = ++++)
320 (EVYQKIILKF; listed as Homo sapiens) [compound 320]	++++ (>75% = ++++)
341 (RYENVSILF; listed as Homo sapiens) [compound 341]	++++ (>75% = ++++)
231 (KYSVAFYSLD; listed as Homo sapiens) [compound 231]	++ (>20% = ++)
135 (KYKQHFPEI; listed as Homo sapiens) [compound 135]	+++ (>50 = +++)
199 (MFQFEHIKW; listed as Homo sapiens) [compound 199]	++ (>20% = ++)
193 (KYKPVALQCIA; listed as Homo sapiens) [compound 193]	++ (>20% = ++)
220 (TYATHVTEI; listed as Homo sapiens) [compound 220]	++++ (>75% = ++++)
312 (YLCMLYALF; listed as Homo sapiens) [compound 312]	++ (>20% = ++)
126 (YSLLDPAQF; listed as Homo sapiens) [compound 126]	+++ (>50 = +++)
368 (AYFVAMHLF; listed as Homo sapiens) [compound 368]	++++ (>75% = ++++)
143 (KTKRWLWDF; listed as Homo sapiens) [compound 143]	+++ (>50 = +++)
289 (RTLNEIYHW; listed as Homo sapiens) [compound 289]	++ (>20% = ++)
20 (ELMAHPFLL; listed as Homo sapiens) [compound 20]	++ (>20% = ++)
285 (YFLPGPHYF; listed as Homo sapiens) [compound 285]	++++ (>75% = ++++)
181 (IHGIKFHYF; listed as Homo sapiens) [compound 181]	+++ (>50 = +++)
329 (YLGKNWSF; listed as Homo sapiens) [compound 329]	++ (>20% = ++)
269 (FSFSTSMNEF; listed as Homo sapiens) [compound 269]	++ (>20% = ++)
363 (QYGFNYNKF; listed as Homo sapiens) [compound 363]	++++ (>75% = ++++)
264 (AYAIPSASLSW; listed as Homo sapiens) [compound 264]	++ (>20% = ++)
54 (SYQEAIQQL; listed as Homo sapiens) [compound 54]	+++ (>50 = +++)
284 (QFYSTLPNTI; listed as Homo sapiens) [compound 284]	+ (>10% = +)
163 (YYIGIVEEYW; listed as Homo sapiens) [compound 163]	++++ (>75% = ++++)
267 (QHMLPFWTDL; listed as Homo sapiens) [compound 267]	+++ (>50 = +++)
169 (MYDLHHLYL; listed as Homo sapiens) [compound 169]	++++ (>75% = ++++)
37 (ISFSDTVNVW; listed as Homo sapiens) [compound 37]	+ (>10% = +)
